Test results from patent US10730851B2, “Polymorph of triaryldimethylpiperazine dihydrochloride and preparation method and application thereof” (priority 2016, dated 2020).
Structures can show the parent of a compound that is named as a salt.

What was measured:
SPF-grade SD rats = assay: Forced swimming test; type: in vivo; details: for antidepressant effect in forced swimming test (in words): rats, dihydrochloride; for Behavior duration, Static / Behavior duration, Swimming / Behavior duration, Wall climbing / Number of behaviors, Static / Number of behaviors, Swimming / Number of behaviors, Wall climbing: x ± SEM
Protocol: Forced swimming test is used to test the antidepressant effects of polymorph forms P, F, O, B and J.
the swimming test equipment is a transparent glass round cylinder with a height of 46 cm and an inner diameter of 20 cm, the test water temperature is 23° C.˜25° C., the test water depth is 30 cm, and each cylinder is used only once.
(§1) 300 mg of a polymorph form P is weighed with an electronic balance, and the polymorph form P is dissolved with 0.9% normal saline, and finally the volume is fixed to 100 mL with 0.9% normal saline, at this time, the concentration of dihydrochloride in the experimental reagent is 3 mg/mL for later use.
as §1, with “600” for “300”, “6” for “3”
400 mg of desipramine (DMI) is weighed with an electronic balance, DMI is dissolved with 0.9% normal saline, and then the volume is fixed to 100 mL with 0.9% normal saline for later use.
Forty SPF-grade SD rats are prepared and randomly divided into 4 groups, namely vehicle control group, positive control group, experimental group 1 and experimental group 2, with 10 rats in each group. The day before the test, the rats were placed in water for 15 min to pre-swim for 15 min in advance to adapt to the swimming test environment, then taken out and dried, placed in the cage under an infrared lamp for 15 min and then placed in the original cage. After 24 h, a formal swimming test is conducted, that is, the rats are put into water again after 24 h, and the rats are continuously observed for 5 min. The swimming process are needed to be photographed. The drug is administered during two swimming sessions.
The positive control group containing DMI is administered three times, at 23.5 h, 5 h and 1 h before the formal swimming test respectively. Vehicle control group, experimental group 1 and experimental group 2 are each administered only once and subcutaneously within 1 h.
The behaviors of the rats are scored by the scorer every 5 seconds after recording the experiment.
1) Static—when the rat floats on the water surface without struggling and moves only to keep its head above the water surface, the rat is evaluated as static;
2) Swimming—if the rats have obvious swimming behaviors, not only to keep their heads above the water surface, or to travel around in a round cylinder, they are evaluated as swimming;
3) Wall climbing—the rats' front paws have obvious behavior of entering and leaving the water surface, usually, rats are evaluated as wall climbing in front of the round cylinder wall.
All behavioral are scored by a single person. To avoid bias of observation, the scorer only observed and scored without knowing the administration situations. Then multiple test fragments are randomly selected, and the scorer will score the second round to determine the accuracy of observation. The test video is scored again by the second scorer to determine the accuracy between scorers. The second scorer are also required to observe without knowing the drug administration. Finally, in order to determine the effectiveness of the method, the first scorer scored again and recorded the duration of various behaviors with a stopwatch.
SPSSwin11.0 software is used for variance analysis. One-way variance analysis is used for homogeneity of variance, and Dunnett test is used for heterogeneity of variance.

[1] = Stability test: physical stability by XRPD under four environmental conditions; type: physicochemical; details: for Crystal form, after nitrogen purging at 60° C. for 2 h / Crystal form, after 40° C./75% RH for one week / Crystal form, after drying at 60 ° C. overnight / Crystal form, after nitrogen purging overnight at room: XRPD; for Crystal form, after nitrogen purging at 60° C. for 2 h / Crystal form, after drying at 60 ° C. overnight / Crystal form, after nitrogen purging overnight at room: dihydrochloride; for Physical stability after standing under the four conditions: conditions 1 to 4; for Crystal form, after 40° C./75% RH for one week / Crystal form, after drying at 60 ° C. overnight: open bottle; for Crystal form, after nitrogen purging overnight at room: room temperature
Protocol: The physical stability of polymorph forms P, F and J are studied under the following four different environmental conditions.
10 mg to 15 mg of polymorph forms P, F and J are each weighed and placed in a 1.5 mL glass bottle, and the glass bottle is placed open for one week in a constant temperature and humidity box under the conditions of 40° C. and 75% RH, and then XRPD tests are carried out on the polymorph forms P, F and J to determine whether the crystal forms of the samples change. FIGS. 11 to 13 are XRPD comparative patterns of polymorph forms P, F and J before and after one week of storage at 40° C. and 75% RH, respectively.
10 mg to 15 mg of polymorph forms P, F and J are each weighed and placed in a 1.5 mL glass bottle, and the glass bottle is placed open overnight in a constant temperature drying oven under the condition of 60° C. Then XRPD test is carried out on the polymorph forms P, F and J to determine whether the crystal forms of the samples change. FIGS. 14 to 16 are XRPD comparative patterns of the polymorph forms P, F and J before and after being placed overnight under a drying condition of 60° C., respectively.
10 mg to 15 mg of polymorph forms P, F and J are each weighed and placed in a 1.5 mL glass bottle, and nitrogen is purged for 2 h under the condition of 60° C. in a nitrogen blower, and then XRPD tests are carried out on the polymorph forms P, F and J to determine whether the crystal forms of the samples change. FIGS. 17 to 19 are XRPD comparative patterns of the polymorph forms P, F and J before and after nitrogen purging for 2 h at 60° C., respectively.
10 mg to 15 mg of polymorph forms P, F and J are each weighed and placed in a 3 mL glass bottle, nitrogen is blown overnight at room temperature in a nitrogen blower, and then XRPD tests are carried out on the polymorph forms P, F and J to determine whether the crystal forms of the samples change. FIGS. 20 to 22 are XRPD comparative patterns of the polymorph forms P, F and J before and after nitrogen purging overnight at room temperature, respectively.
Judging from XRPD comparative patterns of various polymorph forms, the physical stability properties of the polymorph forms P, F and J are obtained, and the results are shown in Table 8.

[2] = Experiment group 1, 30 mg/kg Sc once
[3] = Experiment group 2, 60 mg/kg Sc once

Structure (SMILES) | antidepressant effect in forced swimming test (in words) (SPF-grade SD rats) | Crystal form, after nitrogen purging at 60° C. for 2 h [1] | Physical stability after standing under the four conditions [1] | Crystal form, after 40° C./75% RH for one week [1] | Crystal form, after drying at 60 ° C. overnight [1] | Crystal form, after nitrogen purging overnight at room [1] | further results
CC1CCN(C(=O)c2ccc([C@H](c3cccc(O)c3)N3C[C@@H](C)N(Cc4cccc(F)c4)C[C@@H]3C)cc2)CC1 [Polymorph form B, (4-((R)-((2S,5R)-4-(3-fluorobenzyl)-(2,5-dimethylpiperazine-1-yl)(3-hydroxyphenyl)methyl)phenyl)(4-methylpiperidine-1-yl)methanone dihydrochloride] | effectively reduce the static times and duration of forced swimming in rats | – | – | – | – | – | –
CC1CCN(C(=O)c2ccc([C@H](c3cccc(O)c3)N3C[C@@H](C)N(Cc4cccc(F)c4)C[C@@H]3C)cc2)CC1 [Polymorph form F, (4-((R)-((2S,5R)-4-(3-fluorobenzyl)-(2,5-dimethylpiperazine-1-yl)(3-hydroxyphenyl)methyl)phenyl)(4-methylpiperidine-1-yl)methanone dihydrochloride] | effectively reduce the static times and duration of forced swimming in rats | invariability | good stability | invariability | invariability | invariability | –
CC1CCN(C(=O)c2ccc([C@H](c3cccc(O)c3)N3C[C@@H](C)N(Cc4cccc(F)c4)C[C@@H]3C)cc2)CC1 [Polymorph form J, (4-((R)-((2S,5R)-4-(3-fluorobenzyl)-(2,5-dimethylpiperazine-1-yl)(3-hydroxyphenyl)methyl)phenyl)(4-methylpiperidine-1-yl)methanone dihydrochloride] | effectively reduce the static times and duration of forced swimming in rats | – | – | invariability | – | – | –
CC1CCN(C(=O)c2ccc([C@H](c3cccc(O)c3)N3C[C@@H](C)N(Cc4cccc(F)c4)C[C@@H]3C)cc2)CC1 [Polymorph form O, (4-((R)-((2S,5R)-4-(3-fluorobenzyl)-(2,5-dimethylpiperazine-1-yl)(3-hydroxyphenyl)methyl)phenyl)(4-methylpiperidine-1-yl)methanone dihydrochloride] | effectively reduce the static times and duration of forced swimming in rats | – | – | – | – | – | –
CC1CCN(C(=O)c2ccc([C@H](c3cccc(O)c3)N3C[C@@H](C)N(Cc4cccc(F)c4)C[C@@H]3C)cc2)CC1 [Polymorph form P, (4-((R)-((2S,5R)-4-(3-fluorobenzyl)-(2,5-dimethylpiperazine-1-yl)(3-hydroxyphenyl)methyl)phenyl)(4-methylpiperidine-1-yl)methanone dihydrochloride] | better antidepressant effect | invariability | good stability | invariability | invariability | invariability | Behavior duration, Static (SPF-grade SD rats; [2]): 45.5 ± 7.5 s; Behavior duration, Swimming (SPF-grade SD rats; [2]): 142.5 ± 21.5 s; Behavior duration, Wall climbing (SPF-grade SD rats; [2]): 114.0 ± 19.0 s; Number of behaviors, Static (SPF-grade SD rats; [2]): 9.1 ± 1.5 times; Number of behaviors, Swimming (SPF-grade SD rats; [2]): 28.5 ± 4.3 times; Number of behaviors, Wall climbing (SPF-grade SD rats; [2]): 22.8 ± 3.8 times; Behavior duration, Static (SPF-grade SD rats; [3]): 88.5 ± 8.0 s; Behavior duration, Swimming (SPF-grade SD rats; [3]): 122.0 ± 14.0 s; Behavior duration, Wall climbing (SPF-grade SD rats; [3]): 91.0 ± 5.5 s; Number of behaviors, Static (SPF-grade SD rats; [3]): 17.7 ± 1.6 times; Number of behaviors, Swimming (SPF-grade SD rats; [3]): 24.4 ± 2.8 times; Number of behaviors, Wall climbing (SPF-grade SD rats; [3]): 18.2 ± 1.1 times
